Measured values reported in patent US20150258189A1, “HEPATITIS C VIRUS PARTICLES FORMATION PROMOTER, AND METHOD OF PRODUCING HEPATITIS C VIRUS PARTICLES” (priority 2012, published 2015).
Read-outs that look alike come from different tables or passages of the source.

Assays:
Type in all cases: cell-based, hepatitis C virus
HCV JFH1 strain [1] = details: for Promotion ratio (HCV particle production-promoting effect): added after HCV adsorption, 46 h culture, Huh7-it cells, moi=0.1, control (DMSO) = 1.0
Method: In this example, the purified lovastatin solution “B15.4.1” (FIG. 1) of Example 1 was used as the “HCV particle formation promoter.” A lovastatin solution prepared by adding a culture medium to the HCV particle formation promoter to adjust each lovastatin concentration at the time of virus inoculation and at the time of culture to from 1.25 to 20 μg/ml was used in the following.
In this example, Huh7-it cells, a highly HCV-permissive cell line derived from Huh7 cells, were used as culture cells. The medium used was Dulbecco's modified Eagle's medium supplemented with 10% fetal calf serum, non-essential amino acids, penicillin, and streptomycin, and the cells were cultured using a 48-well culture plate.
A HCV stock solution to be used to promote formation of HCV particles was prepared by the following method. The HCV strain used was JFH1 strain (genome sequence: GenBank accession number AB047639). RNA having the same sequence as that of the full genome of the HCV JFH1 strain was introduced (transfected) into Huh7-it cells by an electroporation method (van den Hoff M J et al., Nucleic Acids Res., 20:2902, 1992), and the culture supernatant 72 hours after the introduction was collected. The collected culture supernatant was passed through a 0.45-μm filter (Millipore) to remove contaminants, and then added to other Huh7-it cells. An infectivity titer was calculated by measuring the number of HCV-infected cells after 72 hours by a focus method, and a solution adjusted to have an infectivity titer of 5.4×10^4 infectious units/ml was used as the HCV stock solution. The infectivity titer to prepare the HCV stock solution was calculated by an immunostaining method. An anti-HCV-core (clone CP14) monoclonal antibody was used as a primary antibody, and a HRP-labeled goat anti-mouse antibody was used as a labeling antibody. Konica Immunostain HRP-1000 (Konica Minolta) was added, and the number of virus antigen-positive cell populations stained in blue (immunofocus; also called focus) was measured under a microscope. Thus, the infectivity titer was calculated.
A mixture of the HCV stock solution (5.4×10^4 infectious units/ml) prepared in the above-mentioned section 3) and the HCV particle formation promoter was inoculated into culture cells, and the virus was adsorbed to the cells at 37° C. for 2 hours. Then, the virus liquid was removed, and the cells were washed three times with a culture medium. After that, in the same manner as described above, the cells were cultured for […] with the addition of the HCV particle formation promoter (lovastatin concentration: 1.25 to 20 μg/ml). The virus was inoculated into the culture cells so that the multiplicity of infection (moi) was 0.1.
To confirm a virus-producing ability, the culture medium of the infected cells was centrifuged at 10,000 rpm for 3 minutes, and the centrifugation supernatant was used as a sample liquid. The sample liquid was inoculated into non-HCV-infected Huh7-it cells. […] The number of staining-positive cells was measured, and the HCV infectivity titer was measured.
In this example, the crude lovastatin solution “B15” (FIG. 1) of Example 1 was used as the “HCV particle formation promoter.” A lovastatin solution prepared by adding a culture medium to the HCV particle formation promoter to adjust each lovastatin concentration at the time of virus inoculation and at the time of culture to from 1 to 50 μg/ml was used in the following.
In this example, HCV was inoculated into culture cells to achieve moi=0.1 as in Example 2, and the HCV particle formation promoter was added at the following timings i) to iii).
A mixture of HCV and the HCV particle formation promoter was inoculated into culture cells, and the virus was adsorbed to the cells at 37° C. for 2 hours. Then, the virus liquid was removed, and the cells were washed three times with a culture medium. After that, the cells were cultured for 46 hours with the addition of the HCV particle formation promoter containing lovastatin. […]

HCV JFH1 strain [2] = test: Intracellular HCV infectivity titer in Huh7-it cells (freeze-thawing method); details: Example 5; 20 μg/ml lovastatin, from adsorption to 48 h after infection; versus DMSO control (FIG. 5)
Method: In this example, culture cells were prepared in the same manner as in Example 2 to confirm the influence on the HCV infectivity titer inside and outside Huh7-it cells in adding the HCV particle formation promoter to the cells over a period of from during HCV adsorption to 48 hours after HCV infection. In this example, the purified lovastatin solution “B15.4.1” (FIG. 1) of Example 1 was used as the HCV particle formation promoter. A lovastatin solution prepared by adding a culture medium to the HCV particle formation promoter to adjust each lovastatin concentration at the time of virus inoculation and at the time of culture to 20 μg/ml was used in the following. A system containing dimethylsulfoxide (DMSO) in place of the HCV particle formation promoter was used as a control.
A sample to measure an extracellular HCV infectivity titer was prepared in the same manner as in Example 2. A sample to measure an intracellular HCV infectivity titer was prepared by a freeze-thawing method. First, infected cells were washed with PBS and then detached by trypsin/EDTA treatment, followed by centrifugation to collect a cell pellet. The cell pellet was washed once with PBS, suspended in 0.5 ml of a culture medium, and freeze-thawed at −80° C. three times repeatedly, followed by centrifugation at 12,000 rpm for 5 minutes. […] Each sample was measured for its virus titer in the same manner as in Example 2.

HCV RNA = test: Intracellular HCV RNA copy number by quantitative RT-PCR in Huh7-it cells; details: Example 6; 20 μg/ml lovastatin; days 1, 2, 3 and 4 after infection; versus DMSO control (FIG. 6)
Method: In this example, culture cells were prepared in the same manner as in Example 2 to confirm the influence on the HCV RNA copy number in the culture cells on days 1, 2, 3, and 4 after HCV infection in adding the HCV particle formation promoter to Huh7-it cells over a period of from during HCV adsorption to 48 hours after HCV infection. In this example, the purified lovastatin solution “B15.4.1” (FIG. 1) of Example 1 was used as the HCV particle formation promoter. A lovastatin solution prepared by adding a culture medium to the HCV particle formation promoter to adjust each lovastatin concentration at the time of virus inoculation and at the time of culture to 20 μg/ml was used in the following. A system containing DMSO in place of the HCV particle formation promoter was used as a control.
A sample to measure an intracellular HCV RNA copy was prepared in the same manner as in Example 5. Total RNA was extracted from infected cells using Trizol®/Trizol®-LS (Invitrogen). cDNA was synthesized from the total RNA by performing a reverse transcription reaction at 37° C. for 15 minutes and an enzyme inactivation reaction at 98° C. for 5 minutes through the use of a ReverTra Ace® qPCR-Kit (Toyobo). The HCV RNA copy number was measured by a quantitative RT-PCR method using a LightCycler® 480 real-time PCR system. […]

HCV protein (antigen) = test: Intracellular HCV protein (antigen) synthesis by immunostaining in Huh7-it cells; details: Example 6, 20 μg/ml lovastatin, versus DMSO control (FIG. 7)
HCV JFH1 strain [3] = details: added after HCV adsorption, 46 h culture, Huh7-it cells, moi=0.1, control (DMSO) = 1.0

| SMILES | Promotion ratio (HCV particle production-promoting effect) (HCV JFH1 strain [1]; 1.25 μg/ml) | Promotion ratio (HCV particle production-promoting effect) (HCV JFH1 strain [1]; 2.5 μg/ml) | Promotion ratio (HCV particle production-promoting effect) (HCV JFH1 strain [1]; 5.0 μg/ml) | Promotion ratio (HCV particle production-promoting effect) (HCV JFH1 strain [1]; 20.0 μg/ml) | HCV infectivity titer (HCV JFH1 strain [1]; Example 2, 5 to 20 μg/ml of lovastatin, during adsorption and 48 h culture, Huh7-it cells (FIG. 2)) | virus infectivity titer (HCV JFH1 strain [1]; Example 4, 20 μg/ml lovastatin, added after HCV adsorption (with or without presence during adsorption), 46 h culture (FIG. 4)) | intracellular HCV particle-producing ability versus control (HCV JFH1 strain [2]) | intracellular HCV RNA replication amount (HCV RNA) | intracellular HCV protein (antigen) synthesis amount (HCV protein (antigen)) | Promotion ratio (HCV particle production-promoting effect) (HCV JFH1 strain [3]; 80.0 μg/ml) | Promotion ratio (HCV particle production-promoting effect) (HCV JFH1 strain [3]; 200.0 μg/ml) |
| --- | --- | --- | --- | --- | --- | --- | --- | --- | --- | --- | --- |
| CC(C)c1c(C(=O)Nc2ccccc2)c(-c2ccccc2)c(-c2ccc(F)cc2)n1CC[C@@H](O)C[C@@H](O)CC(=O)O [Atorvastatin, calcium (3R,5R)-7-[2-(4-fluorophenyl)-5-isopropyl-3-phenyl-4-[(phenylamino)carbonyl]-1H-pyrrol-1-yl]-3,5-dihydroxyheptanoate] | 0.9 | 4.3 | 9.4 | 9.7 | – | – | – | – | – | – | – |
| CC(C)n1c(/C=C/[C@@H](O)C[C@@H](O)CC(=O)[O-])c(-c2ccc(F)cc2)c2ccccc21.[Na+] [Fluvastatin, sodium (3R,5S,6E)-7-[3-(4-fluorophenyl)-1-(1-methylethyl)-1H-indol-2-yl]-3,5-dihydroxy-6-heptenoate] | 9.2 | 14.3 | 15.2 | 7.9 | – | – | – | – | – | – | – |
| CC[C@H](C)C(=O)O[C@H]1C[C@@H](C)C=C2C=C[C@H](C)[C@H](CC[C@@H]3C[C@@H](O)CC(=O)O3)[C@H]21 [B15.4.1] | – | – | – | – | high HCV infectivity titer was found in a lovastatin concentration-dependent manner | high virus infectivity titer was found | substantially no difference | not affected | not affected | – | – |
| CC[C@H](C)C(=O)O[C@H]1C[C@H](O)C=C2C=C[C@H](C)[C@H](CC[C@@H](O)C[C@@H](O)CC(=O)O)[C@H]21 [Pravastatin, (1S,βR,δR,8aβ)-1,2,6,7,8,8a-hexahydro-β,δ,6β-trihydroxy-2β-methyl-8α-[(S)-2-methyl-1-oxobutoxy]-1β-naphthaleneheptanoate] | – | – | 0.6 | 2.7 | – | – | – | – | – | 17.2 | 24.7 |
| CC[C@H](C)C(=O)O[C@H]1C[C@@H](C)C=C2C=C[C@H](C)[C@H](CC[C@@H]3C[C@@H](O)CC(=O)O3)[C@H]21 [Lovastatin, (1S,3R,7S,8S,8aR)-8-[2-((2R,4R)-4-hydroxy-6-oxotetrahydro-2H-pyran-2-yl)ethyl]-3,7-dimethyl-1,2,3,7,8,8a-hexahydro-1-naphthyl] | 0.8 | 3.5 | 6.1 | 11.1 | – | – | – | – | – | – | – |
| CCC(C)(C)C(=O)O[C@H]1C[C@@H](C)C=C2C=C[C@H](C)[C@H](CC[C@@H]3C[C@@H](O)CC(=O)O3)[C@H]21 [Simvastatin, (1S,3R,7S,8S,8aR)-8-[2-[(2R,4R)-4-hydroxy-6-oxotetrahydropyran-2-yl]ethyl]-3,7-dimethyl-1,2,3,7,8,8a-hexahydro-1-naphthyl] | 8.5 | 14.8 | 19.5 | 4.1 | – | – | – | – | – | – | – |
